Experimental data from US20240368173A1, “TRICYCLIC GPR65 MODULATORS” (PATHIOS THERAPEUTICS LIMITED, priority 2021, published 2024).

Target: human recombinant GPR65 (Homo sapiens, UniProt Q8IYL9)
Test: Human GPR65 cAMP HTRF antagonist assay
Assay type: cell-based
Conditions: not given
Method in brief: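 1321N1 astrocytoma cells stably expressing hrGPR65, with IBMX and EDTA, were preincubated with compound 30 min at room temperature, then acid-activated at assay pH 7.2 (control pH 7.9) for 30 min. cAMP read by HTRF (665/620 nm ratio); IC50 from 4-parameter fit normalised to high/low controls.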

Sequence of human recombinant GPR65 (Q8IYL9 whole entry): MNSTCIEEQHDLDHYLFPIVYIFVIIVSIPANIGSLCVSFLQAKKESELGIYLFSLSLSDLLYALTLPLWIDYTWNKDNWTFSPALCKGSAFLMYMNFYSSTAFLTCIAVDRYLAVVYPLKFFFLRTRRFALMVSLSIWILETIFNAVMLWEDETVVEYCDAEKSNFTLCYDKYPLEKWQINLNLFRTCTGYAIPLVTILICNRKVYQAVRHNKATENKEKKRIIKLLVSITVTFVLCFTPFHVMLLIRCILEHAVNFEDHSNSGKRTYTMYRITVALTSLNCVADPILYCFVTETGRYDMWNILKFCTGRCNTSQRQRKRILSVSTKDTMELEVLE

SMILES	IC50 [nM]
COC(=O)c1cncc(-c2cc(F)c(NC(=O)N3[C@H]4CC[C@@H]3c3n[nH]c(=O)cc3C4)cc2Cl)c1 [Compound 188, Methyl 5-(2-chloro-5-fluoro-4-((6S,9R)-3-oxo-3,5,6,7,8,9-hexahydro-2H-6,9-epiminocyclohepta[c]pyridazine-10-carboxamido)phenyl)nicotinate]	< 500
O=C(Nc1cc(-c2ccccc2)c(C(F)(F)F)cc1F)N1[C@H]2CC[C@@H]1c1n[nH]c(=O)cc1C2 [Compound 258, (6S,9R)-N-(4-Fluoro-6-(trifluoromethyl)-[1,1′-biphenyl]-3-yl)-3-oxo-3,5,6,7,8,9-hexahydro-2H-6,9-epiminocyclohepta[c]pyridazine-10-carboxamide]	< 500
Cn1nnc2ccc(-c3cc(F)c(NC(=O)N4[C@H]5CC[C@@H]4c4n[nH]c(=O)cc4C5)cc3Cl)cc21 [Compound 141, (6S,9R)-N-(5-Chloro-2-fluoro-4-(1-methyl-1H-benzo[d][1,2,3]triazol-6-yl)phenyl)-3-oxo-3,5,6,7,8,9-hexahydro-2H-6,9-epiminocyclohepta[c]pyridazine-10-carboxamide]	< 500
CN1C(=O)COc2ccc(-c3cc(F)c(NC(=O)N4[C@H]5CC[C@@H]4c4n[nH]c(=O)cc4C5)cc3Cl)cc21 [Compound 147, (6S,9R)-N-(5-Chloro-2-fluoro-4-(4-methyl-3-oxo-3,4-dihydro-2H-benzo[b][1,4]oxazin-6-yl)phenyl)-3-oxo-3,5,6,7,8,9-hexahydro-2H-6,9-epiminocyclohepta[c]pyridazine-10-carboxamide]	< 500
COc1ccc(-c2cc(F)c(NC(=O)N3[C@H]4CC[C@@H]3c3n[nH]c(=O)cc3C4)cc2Cl)cn1 [Compound 171, (6S,9R)-N-(5-Chloro-2-fluoro-4-(6-methoxypyridin-3-yl)phenyl)-3-oxo-3,5,6,7,8,9-hexahydro-2H-6,9-epiminocyclohepta[c]pyridazine-10-carboxamide]	< 500
Cc1ccc(-c2cc(F)c(NC(=O)N3[C@H]4CC[C@@H]3c3n[nH]c(=O)cc3C4)cc2Cl)cn1 [Compound 123, (6S,9R)-N-(5-Chloro-2-fluoro-4-(6-methylpyridin-3-yl)phenyl)-3-oxo-3,5,6,7,8,9-hexahydro-2H-6,9-epiminocyclohepta[c]pyridazine-10-carboxamide]	< 500
O=C(Nc1ccc(C(F)(F)F)c(Br)c1)N1[C@H]2CC[C@@H]1c1n[nH]c(=O)cc1C2 [Compound 31, (6S,9R)-N-(3-Bromo-4-(trifluoromethyl)phenyl)-3-oxo-3,5,6,7,8,9-hexahydro-2H-6,9-epiminocyclohepta[c]pyridazine-10-carboxamide]	< 500
O=C(Nc1cc(Cl)c(-c2ccc(OCC(F)(F)F)nc2)cc1F)N1C2CCC1C(F)(F)c1c2ccnc1F (racemic) [Compound 290, (±)-N-(5-Chloro-2-fluoro-4-(6-(2,2,2-trifluoroethoxy)pyridin-3-yl)phenyl)-1,9,9-trifluoro-6,7,8,9-tetrahydro-5H-5,8-epiminocyclohepta[c]pyridine-10-carboxamide]	< 500
O=C(Nc1ccc(Br)c(C(F)(F)F)c1)N1[C@@H]2CC[C@H]1c1n[nH]c(=O)cc1C2 [Compound 48, (6R,9S)-N-(4-Bromo-3-(trifluoromethyl)phenyl)-3-oxo-3,5,6,7,8,9-hexahydro-2H-6,9-epiminocyclohepta[c]pyridazine-10-carboxamide]	500 to 5000
O=C(Nc1cc(Cl)c(-c2cncc(F)c2)cn1)N1[C@H]2CC[C@@H]1c1n[nH]c(=O)cc1C2 [Compound 229, (6S,9R)-N-(4-Chloro-5′-fluoro-[3,3′-bipyridin]-6-yl)-3-oxo-3,5,6,7,8,9-hexahydro-2H-6,9-epiminocyclohepta[c]pyridazine-10-carboxamide]	< 500

Same assay, conditions: 1321N1-hrGPR65 cells, cAMP HTRF, assay pH 7.2; read-out: hGPR65 IC50 (Activity of selected compounds according to the invention)

SMILES	IC50 [nM]
COc1nccc2c1C[C@@H]1CC[C@H]2N1C(=O)Nc1cc(Cl)c(Cl)cc1F [Compound 88, (5R,8S)-N-(4,5-Dichloro-2-fluorophenyl)-1-methoxy-6,7,8,9-tetrahydro-5H-5,8-epiminocyclohepta[c]pyridine-10-carboxamide]	500 to 5000
